Literature values in patent publication US20050118256A1, “Extended release alpha-2 agonist pharmaceutical dosage forms” (priority 2003, published 2005).
Structures can show the parent of a compound that is named as a salt.

Test system: skeletal muscle fibers, neuromuscular junction, spinal reflexes
Details: animal models

SMILES: Clc1ccc2nsnc2c1NC1=NCCN1 [Tizanidine, 5-chloro-4-(2-imidazolin-2-ylamino)-2,1,3-benzothiodiazole hydrochloride]
- effect on monosynaptic spinal reflexes: no major effect
- effect on skeletal muscle fibers or the neuromuscular junction: no direct effect
